These results are taken from patent publication US9296725B2, “Heterocyclyl pyrimidine analogues as TYK2 inhibitors” (Cellzome Limited, priority 2012, dated 2016).

The target in assay [1] is T1, TYK2 (Homo sapiens, UniProt P29597).
T1 construct: endogenous in cells; host or cells: Molt4 (ATCC CRL-1582) and Ramos (ATCC CRL-1596), mixed lysate 1:2
The experiment in a line: Kinobeads assay, TYK2 (competition binding in mixed Molt4/Ramos cell lysate, dot blot detection). Conditions: Kinobeads assay, Molt4/Ramos lysate; read-out: TYK2 Band (Kinobeads assay potency, IC50). The procedure, abridged: (§1)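 Competition binding: compound dilutions (1:3 series, 9 steps) plus immobilized aminopyrido-pyrimidine beads incubated 3 h in the cold with mixed Molt4/Ramos lysate (1:2) at 10 mg/mL protein. Bead-bound JAK2/TYK2 eluted and quantified by antibody dot blot with infrared detection; IC50 from dose-response curves.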

Assay [2] addresses T2, JAK2 (Homo sapiens, UniProt O60674).
T2 construct: endogenous in cells; host or cells: Molt4 (ATCC CRL-1582) and Ramos (ATCC CRL-1596), mixed lysate 1:2
Briefly: Kinobeads assay, JAK2 (competition binding in mixed Molt4/Ramos cell lysate, dot blot detection). The settings on record: read-out: JAK2 Band (Kinobeads assay potency, IC50). The procedure, abridged:
as §1

T1 sequence (P29597 whole entry): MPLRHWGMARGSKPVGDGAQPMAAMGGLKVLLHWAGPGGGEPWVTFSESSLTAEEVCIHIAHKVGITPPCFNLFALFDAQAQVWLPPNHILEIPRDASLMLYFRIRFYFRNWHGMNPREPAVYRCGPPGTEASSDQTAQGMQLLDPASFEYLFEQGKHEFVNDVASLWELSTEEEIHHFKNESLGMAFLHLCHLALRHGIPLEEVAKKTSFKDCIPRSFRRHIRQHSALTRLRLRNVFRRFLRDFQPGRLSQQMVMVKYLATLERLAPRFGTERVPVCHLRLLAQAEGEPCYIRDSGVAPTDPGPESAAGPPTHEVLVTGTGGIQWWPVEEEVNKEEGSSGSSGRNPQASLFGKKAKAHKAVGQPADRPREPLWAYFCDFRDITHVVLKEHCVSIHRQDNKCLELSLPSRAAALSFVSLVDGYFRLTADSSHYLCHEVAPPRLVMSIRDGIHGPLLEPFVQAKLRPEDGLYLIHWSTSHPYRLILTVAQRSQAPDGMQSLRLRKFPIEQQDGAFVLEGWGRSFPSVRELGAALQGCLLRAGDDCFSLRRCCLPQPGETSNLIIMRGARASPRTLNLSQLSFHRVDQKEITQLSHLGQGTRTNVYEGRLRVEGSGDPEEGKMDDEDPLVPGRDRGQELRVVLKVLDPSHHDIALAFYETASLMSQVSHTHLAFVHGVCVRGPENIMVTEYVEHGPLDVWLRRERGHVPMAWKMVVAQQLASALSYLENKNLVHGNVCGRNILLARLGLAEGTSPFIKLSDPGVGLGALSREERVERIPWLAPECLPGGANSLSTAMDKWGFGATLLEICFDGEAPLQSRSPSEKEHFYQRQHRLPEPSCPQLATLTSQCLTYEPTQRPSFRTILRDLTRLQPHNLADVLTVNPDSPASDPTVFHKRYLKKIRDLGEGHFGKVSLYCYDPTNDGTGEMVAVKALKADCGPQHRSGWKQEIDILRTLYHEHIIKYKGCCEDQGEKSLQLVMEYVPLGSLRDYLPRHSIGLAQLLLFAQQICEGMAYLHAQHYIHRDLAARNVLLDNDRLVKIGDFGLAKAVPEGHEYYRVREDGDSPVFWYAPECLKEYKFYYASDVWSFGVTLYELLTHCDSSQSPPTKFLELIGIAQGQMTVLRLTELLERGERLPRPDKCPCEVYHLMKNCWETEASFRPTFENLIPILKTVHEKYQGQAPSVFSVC
T2 sequence (O60674 whole entry): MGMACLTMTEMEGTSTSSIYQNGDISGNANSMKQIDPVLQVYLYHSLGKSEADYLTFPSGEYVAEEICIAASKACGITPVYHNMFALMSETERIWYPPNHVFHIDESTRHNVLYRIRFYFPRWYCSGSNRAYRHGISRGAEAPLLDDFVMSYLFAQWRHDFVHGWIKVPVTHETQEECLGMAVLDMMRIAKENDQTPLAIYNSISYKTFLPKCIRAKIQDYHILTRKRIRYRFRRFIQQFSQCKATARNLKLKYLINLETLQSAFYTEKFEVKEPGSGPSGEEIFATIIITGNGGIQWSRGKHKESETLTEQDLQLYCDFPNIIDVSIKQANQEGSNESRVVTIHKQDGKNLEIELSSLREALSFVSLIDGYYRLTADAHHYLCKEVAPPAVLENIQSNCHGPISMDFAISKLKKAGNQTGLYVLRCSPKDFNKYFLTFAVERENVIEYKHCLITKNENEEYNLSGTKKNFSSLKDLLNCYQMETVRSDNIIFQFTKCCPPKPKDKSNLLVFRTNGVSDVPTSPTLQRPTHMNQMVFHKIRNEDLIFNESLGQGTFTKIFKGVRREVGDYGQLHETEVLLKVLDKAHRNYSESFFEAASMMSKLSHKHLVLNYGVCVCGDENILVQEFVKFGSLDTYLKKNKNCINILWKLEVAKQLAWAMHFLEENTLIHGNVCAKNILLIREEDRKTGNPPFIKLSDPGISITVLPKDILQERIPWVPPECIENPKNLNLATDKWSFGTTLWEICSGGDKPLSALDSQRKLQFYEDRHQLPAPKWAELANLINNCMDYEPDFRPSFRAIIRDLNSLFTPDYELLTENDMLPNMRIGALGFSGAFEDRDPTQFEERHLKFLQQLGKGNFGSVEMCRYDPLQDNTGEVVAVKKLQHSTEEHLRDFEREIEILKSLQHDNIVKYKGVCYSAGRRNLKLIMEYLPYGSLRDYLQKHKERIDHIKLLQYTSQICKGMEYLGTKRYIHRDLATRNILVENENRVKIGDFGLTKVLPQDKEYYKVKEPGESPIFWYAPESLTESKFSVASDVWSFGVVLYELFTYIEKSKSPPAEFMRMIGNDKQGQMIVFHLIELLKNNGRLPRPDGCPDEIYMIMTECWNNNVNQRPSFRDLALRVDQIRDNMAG

In the case of `CS(=O)(=O)c1ccccc1CNc1nc(Nc2cnn(CC(=O)N3CCOCC3)c2)ncc1Cl` [Example I-453], the IC50 in assay [1] and in assay [2] was 0.1 to 1 µM throughout.
For the compound `O=C(Cn1cc(Nc2nccc(NCc3c(F)cc(F)cc3F)n2)cn1)N[C@H]1C[C@H]1F` [Example I-454], the IC50 in assay [1] fell in the range of 0.01 to 0.1 µM; in assay [2], 1 to 10 µM.
The matching figures for `CC(C)NC(=O)Cn1cc(Nc2ncc(F)c(NCc3c(F)ccc(F)c3F)n2)cn1` [Example I-455]: ≤ 0.01 µM and 1 to 10 µM.
The matching figures for `C[C@H](CO)NC(=O)Cn1cc(Nc2nccc(NCc3c(F)cc(F)cc3F)n2)cn1` [Example I-456]: 0.01 to 0.1 µM and 1 to 10 µM.
Consider `Cn1cc(Nc2ncc(F)c(NCc3c(Cl)ccc(Cl)c3F)n2)cn1` [Example I-457], for which the results for the IC50 in assay [1] and in assay [2] were 0.01 to 0.1 µM and 0.1 to 1 µM, respectively.
With `CC1(C)CN(C(=O)Cn2cc(Nc3nccc(NCc4c(F)cc(F)cc4F)n3)cn2)C1` [Example I-458], the concentration for half-maximal inhibition (IC50) in assay [1] was 0.01 to 0.1 µM; in assay [2], > 10 µM.
For `CC1(C)COCCN1C(=O)Cn1cc(Nc2nccc(NCc3c(F)cc(F)cc3F)n2)cn1` [Example I-459] the same measures were 0.01 to 0.1 µM and > 10 µM.
For `CC(C)(CO)NC(=O)Cn1cc(Nc2nccc(NCc3c(F)cc(F)cc3F)n2)cn1` [Example I-460] the same measures were 0.01 to 0.1 µM and 1 to 10 µM.
`FCCn1cc(Nc2ncc(Cl)c(NCc3ccccc3)n2)cn1` [Example I-461]: the IC50 in assay [1] and in assay [2] was 1 to 10 µM each time.
Take `Cn1cc(Nc2ncc(F)c(NCc3c(F)c(F)cc(F)c3F)n2)cn1` [Example I-462]: the IC50 in assay [1] fell in the range of 0.1 to 1 µM; in assay [2], 1 to 10 µM.
For `Cc1cnc(Nc2cnn(CCC(F)(F)F)c2)nc1NCc1cc(F)cc(F)c1` [Example I-463] the same measures were 1 to 10 µM and 1 to 10 µM.
With `Fc1cc(F)c(CNc2nc(Nc3cnn(CC(F)F)c3)ncc2F)c(F)c1` [Example I-464], the IC50 in assay [1] was 0.1 to 1 µM; in assay [2] it was > 10 µM.
In the case of `Cc1cnc(Nc2cnn(CC(F)F)c2)nc1NCc1ccc(S(N)(=O)=O)cc1` [Example I-465], the IC50 in assay [1] was 0.1 to 1 µM; in assay [2], 1 to 10 µM.
For `Cc1cnc(Nc2cnn(CC(F)F)c2)nc1NCc1cccc(S(C)(=O)=O)c1` [Example I-466] the same measures were 0.1 to 1 µM and 1 to 10 µM.
The matching figures for `CS(=O)(=O)c1cccc(CNc2nc(Nc3cnn(CC(F)F)c3)ncc2Cl)c1` [Example I-467]: 1 to 10 µM and 1 to 10 µM.
For `Fc1cc(F)c(F)c(CNc2nc(Nc3cnn(CC(F)F)c3)ncc2Cl)c1` [Example I-468] the same measures were 0.1 to 1 µM and 0.1 to 1 µM.
On to `Fc1cccc(F)c1CNc1nc(Nc2cnn(CC(F)F)c2)ncc1Cl` [Example I-469], for which the IC50 in assay [1] and in assay [2] was 0.1 to 1 µM in each case.
For the compound `Fc1cc(F)cc(CNc2nc(Nc3cnn(CC(F)F)c3)ncc2Cl)c1` [Example I-470], the 50% inhibitory concentration (IC50) in assay [1] and in assay [2] was 0.1 to 1 µM in each case.
`CS(=O)(=O)c1ccccc1CNc1nc(Nc2cnn(CC(F)F)c2)ncc1Cl` [Example I-471]: the IC50 in assay [1] and in assay [2] was 1 to 10 µM throughout.
Consider `CNS(=O)(=O)c1ccccc1CNc1nc(Nc2cnn(CCO)c2)ncc1Cl` [Example I-472], for which the results for the IC50 in assay [1] and in assay [2] were 0.01 to 0.1 µM and 0.1 to 1 µM, respectively.
For `CNS(=O)(=O)c1ccccc1CNc1nc(Nc2cnn(C)c2)ncc1Cl` [Example I-473], the IC50 in assay [1] and in assay [2] was 0.1 to 1 µM throughout.
In the case of `CN(C)S(=O)(=O)c1ccccc1CNc1nc(Nc2cnn(C)c2)ncc1Cl` [Example I-474], the IC50 in assay [1] and in assay [2] was 0.1 to 1 µM in each case.
For the compound `CS(=O)(=O)c1ccccc1CNc1nc(Nc2cnn(CC(F)(F)F)c2)ncc1Cl` [Example I-475], the IC50 is 1 to 10 µM in assay [1] and > 10 µM in assay [2].
Take `CS(=O)(=O)c1ccccc1CNc1nc(Nc2cnn(CC3CC3)c2)ncc1Cl` [Example I-476]: the IC50 in assay [1] and in assay [2] was 1 to 10 µM throughout.
For the compound `CS(=O)(=O)c1ccccc1CNc1nc(Nc2cnn(CC(F)F)c2)ncc1F` [Example I-477], the IC50 in assay [1] and in assay [2] was 1 to 10 µM throughout.
With `Cc1cnc(Nc2cnn(CC(F)F)c2)nc1NCc1ccccc1S(C)(=O)=O` [Example I-478], the IC50 was 1 to 10 µM in assay [1] and > 10 µM in assay [2].
As to `COc1ccc(S(C)(=O)=O)cc1CNc1nc(Nc2cnn(CC(F)F)c2)ncc1F` [Example I-480], the IC50 is 0.1 to 1 µM in assay [1] and 1 to 10 µM in assay [2].
For `Fc1cccc(F)c1CNc1nc(Nc2cnn(Cc3ncco3)c2)ncc1Cl` [Example I-481] the same measures were 0.1 to 1 µM and 1 to 10 µM.
The matching figures for `Cn1cc(Cn2cc(Nc3ncc(Cl)c(NCc4c(F)cccc4F)n3)cn2)cn1` [Example I-482]: 0.1 to 1 µM and 1 to 10 µM.
As to `Cc1noc(Cn2cc(Nc3ncc(Cl)c(NCc4c(F)cccc4F)n3)cn2)n1` [Example I-483], the IC50 in assay [1] was in the range of 0.1 to 1 µM; in assay [2], 1 to 10 µM.
For `Cc1scnc1Cn1cc(Nc2ncc(Cl)c(NCc3c(F)cccc3F)n2)cn1` [Example I-484] the same measures were 0.1 to 1 µM and 0.1 to 1 µM.
With `CS(=O)(=O)c1ccc(F)cc1CNc1nc(Nc2cn[nH]c2)ncc1F` [Example I-486], the IC50 in assay [1] and in assay [2] was 0.1 to 1 µM in each case.
As to `Cn1cc(Nc2ncc(F)c(NCc3cc(F)ccc3S(C)(=O)=O)n2)cn1` [Example I-487], the 50% inhibitory concentration (IC50) in assay [1] and in assay [2] was 0.1 to 1 µM in each case.
For the compound `CS(=O)(=O)c1ccc(F)cc1CNc1nc(Nc2cnn(CCO)c2)ncc1F` [Example I-488], the IC50 in assay [1] lay within 0.01 to 0.1 µM; in assay [2], 0.1 to 1 µM.
For `CS(=O)(=O)c1ccc(F)cc1CNc1nc(Nc2cnn(CC(N)=O)c2)ncc1F` [Example I-489] the same measures were 0.01 to 0.1 µM and 0.1 to 1 µM.
The matching figures for `C[C@H](CO)NC(=O)Cn1cc(Nc2nccc(NCc3c(F)cccc3F)n2)cn1` [Example I-490]: 0.01 to 0.1 µM and 1 to 10 µM.

A word on the IC50: it is the concentration that gives 50% inhibition.
